What all share (assay type): biochemical
Assay [1] addresses MMP-13h (Homo sapiens (Human), UniProt P45452). Nature of the assay: Inhibition constant (Ki) on MMP-13h. Particulars: human MMP-13. The text has this: (§1) The inhibition constant Ki of these compounds has been determined according to the protocol described by Devel et al, 2006, J. Biol. Chem. (7).
(§2) In this table I and also in table II below, “h” corresponds to human. All of the compounds have therefore been evaluated on human MMPs.

The target in assay [2] is MMP-12h (Homo sapiens (Human), UniProt P39900). Nature of the assay: Inhibition constant (Ki) on MMP-12h. Particulars: human MMP-12.
Chain of MMP-12h (P39900 106-470): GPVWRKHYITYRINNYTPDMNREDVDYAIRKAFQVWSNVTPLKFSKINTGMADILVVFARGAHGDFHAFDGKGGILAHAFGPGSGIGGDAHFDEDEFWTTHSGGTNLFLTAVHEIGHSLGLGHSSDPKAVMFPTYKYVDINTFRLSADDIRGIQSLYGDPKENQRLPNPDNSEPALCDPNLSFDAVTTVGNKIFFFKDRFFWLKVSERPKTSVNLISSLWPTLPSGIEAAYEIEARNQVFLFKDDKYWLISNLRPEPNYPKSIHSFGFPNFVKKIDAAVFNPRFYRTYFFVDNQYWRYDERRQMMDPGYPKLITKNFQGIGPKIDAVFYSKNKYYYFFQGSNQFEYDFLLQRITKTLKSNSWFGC
The target in assay [3] is MMP-10h (Homo sapiens (Human), UniProt P09238). Nature of the assay: Inhibition constant (Ki) on MMP-10h. Particulars: human MMP-10.
Chain of MMP-10h (P09238 99-476): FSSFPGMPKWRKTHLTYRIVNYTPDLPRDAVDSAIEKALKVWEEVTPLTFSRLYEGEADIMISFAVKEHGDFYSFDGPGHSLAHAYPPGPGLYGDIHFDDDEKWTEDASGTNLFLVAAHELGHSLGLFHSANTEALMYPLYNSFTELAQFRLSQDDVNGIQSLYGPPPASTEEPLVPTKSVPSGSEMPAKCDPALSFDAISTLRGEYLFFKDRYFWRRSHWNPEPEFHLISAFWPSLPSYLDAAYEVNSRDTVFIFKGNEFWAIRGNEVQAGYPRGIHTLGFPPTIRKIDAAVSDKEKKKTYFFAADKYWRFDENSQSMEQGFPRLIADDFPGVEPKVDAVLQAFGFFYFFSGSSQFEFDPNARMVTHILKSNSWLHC
Assay [4] addresses MMP-14h (Homo sapiens (Human), UniProt P50281). Nature of the assay: Inhibition constant (Ki) on MMP-14h. Particulars: human MMP-14.
Text: as §1, §2

Assay [5] has as its target MMP-8h (Homo sapiens (Human), UniProt P22894). Nature of the assay: Inhibition constant (Ki) on MMP-8h. Particulars: human MMP-8.
The target in assay [6] is MMP-3h (Homo sapiens (Human), UniProt P08254). Nature of the assay: Inhibition constant (Ki) on MMP-3h. To be noted: human MMP-3.
Chain of MMP-3h (P08254 100-477): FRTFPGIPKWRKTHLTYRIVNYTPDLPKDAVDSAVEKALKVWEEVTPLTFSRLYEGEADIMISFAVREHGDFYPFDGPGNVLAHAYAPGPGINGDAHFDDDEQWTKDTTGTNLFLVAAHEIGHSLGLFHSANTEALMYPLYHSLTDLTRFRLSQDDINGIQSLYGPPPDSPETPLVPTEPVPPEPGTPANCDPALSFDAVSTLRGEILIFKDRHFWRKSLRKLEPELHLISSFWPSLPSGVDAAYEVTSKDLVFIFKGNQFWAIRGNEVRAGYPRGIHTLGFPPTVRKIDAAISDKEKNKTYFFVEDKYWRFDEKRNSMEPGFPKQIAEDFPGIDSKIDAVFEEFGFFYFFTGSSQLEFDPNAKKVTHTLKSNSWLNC
Text: as §1, §2

In assay [7] the target is MMP-2h (Homo sapiens (Human), UniProt P08253). Nature of the assay: Inhibition constant (Ki) on MMP-2h. To be noted: human MMP-2.
Chain of MMP-2h (P08253 110-660): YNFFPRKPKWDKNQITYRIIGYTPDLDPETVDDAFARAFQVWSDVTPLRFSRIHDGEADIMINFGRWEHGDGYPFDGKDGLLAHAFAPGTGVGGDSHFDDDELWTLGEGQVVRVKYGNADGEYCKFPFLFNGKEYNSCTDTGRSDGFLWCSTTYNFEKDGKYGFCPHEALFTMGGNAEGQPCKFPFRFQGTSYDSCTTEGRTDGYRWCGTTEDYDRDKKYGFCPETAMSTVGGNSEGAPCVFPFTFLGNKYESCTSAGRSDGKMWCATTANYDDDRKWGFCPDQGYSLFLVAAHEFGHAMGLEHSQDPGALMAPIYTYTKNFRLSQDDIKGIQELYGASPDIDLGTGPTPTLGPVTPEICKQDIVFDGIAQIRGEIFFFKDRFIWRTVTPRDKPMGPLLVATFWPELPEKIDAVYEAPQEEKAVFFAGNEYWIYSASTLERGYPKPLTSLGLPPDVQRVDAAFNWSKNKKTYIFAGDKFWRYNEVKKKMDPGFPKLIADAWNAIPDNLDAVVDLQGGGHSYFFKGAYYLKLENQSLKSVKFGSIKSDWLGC
Text: as §1, §2

In assay [8] the target is MMP-9h (Homo sapiens (Human), UniProt P14780). Nature of the assay: Inhibition constant (Ki) on MMP-9h. Particulars: human MMP-9.
Chain of MMP-9h (P14780 94-707): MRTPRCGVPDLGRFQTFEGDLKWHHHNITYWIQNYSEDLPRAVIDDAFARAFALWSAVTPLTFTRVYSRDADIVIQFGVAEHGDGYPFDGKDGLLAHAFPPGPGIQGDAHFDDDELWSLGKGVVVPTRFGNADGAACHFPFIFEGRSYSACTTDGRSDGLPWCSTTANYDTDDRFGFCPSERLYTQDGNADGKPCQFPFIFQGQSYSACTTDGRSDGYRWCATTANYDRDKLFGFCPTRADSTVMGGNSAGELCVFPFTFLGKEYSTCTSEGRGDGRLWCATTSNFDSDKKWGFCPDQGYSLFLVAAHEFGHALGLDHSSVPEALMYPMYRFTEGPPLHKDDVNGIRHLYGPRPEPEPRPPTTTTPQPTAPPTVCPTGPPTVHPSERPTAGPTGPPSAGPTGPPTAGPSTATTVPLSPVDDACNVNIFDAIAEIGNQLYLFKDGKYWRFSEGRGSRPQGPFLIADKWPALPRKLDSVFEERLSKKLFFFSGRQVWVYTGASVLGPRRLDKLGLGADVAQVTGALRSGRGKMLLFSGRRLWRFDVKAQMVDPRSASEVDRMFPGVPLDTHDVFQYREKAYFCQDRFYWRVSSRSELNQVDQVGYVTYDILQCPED
Text: as §1, §2

Like-named read-outs stand apart in the source and are kept apart here.

The values that follow come from patent US8691753B2 (priority 2009, dated 2014).

Chain of MMP-8h (P22894 101-467): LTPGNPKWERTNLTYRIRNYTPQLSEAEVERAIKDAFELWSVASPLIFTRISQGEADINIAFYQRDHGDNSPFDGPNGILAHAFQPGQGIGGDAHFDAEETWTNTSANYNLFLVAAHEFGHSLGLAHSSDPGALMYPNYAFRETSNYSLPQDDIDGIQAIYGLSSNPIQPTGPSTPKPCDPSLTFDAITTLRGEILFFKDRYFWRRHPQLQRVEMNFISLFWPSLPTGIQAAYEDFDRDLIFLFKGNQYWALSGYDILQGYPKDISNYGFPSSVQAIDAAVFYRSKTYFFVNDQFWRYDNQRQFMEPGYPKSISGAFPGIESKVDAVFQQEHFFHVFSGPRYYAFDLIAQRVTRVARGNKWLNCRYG

In the case of `NC(=O)[C@H](CCC(=O)O)NC(=O)[C@H](CC(=O)O)NC(=O)CCc1cc(-c2ccc(-c3ccccc3)cc2)no1` [Compound 17, (S)-5-amino-4-((S)-2-(3-(3-(biphenyl-4-yl)isoxazl-5-yl)propanamido)-3-carboxypropanamido)-5-oxopentanoic acid], the Ki in assay [1] (read-out: Ki MMP-13h) was 0.036 µM; in assay [2] (read-out: Ki MMP-12h), 0.053 µM; in assay [3] (read-out: Ki MMP-10h) it was over 1 µM; in assay [4] (read-out: Ki MMP-14h) it was over 5 µM; in assay [5] (read-out: Ki MMP-8h) it was over 1 µM; in assay [6] (read-out: Ki MMP-3h), 0.699 µM. For the same compound, the Ki in assay [7] (read-out: Ki MMP-2h) is 0.065 µM; in assay [8] (read-out: Ki MMP-9h), over 1 µM.

`NC(=O)[C@H](CC(=O)O)NC(=O)[C@H](CCC(=O)O)NC(=O)CCc1cc(-c2ccc(-c3ccccc3)cc2)no1` [Compound 18, (S)-5-((S)-1-amino-3-carboxy-1-oxopropan-2-ylamino)-4-(3-(3-(biphenyl-4-yl)isoxazol-5-yl)propanamido)-5-oxopentanoic acid]: the Ki was 0.03 µM in assay [1]; 0.008 µM in assay [2]; 0.196 µM in assay [3]; over 1 µM in assay [4]; 0.832 µM in assay [5]; 0.44 µM in assay [6]. Besides, the Ki in assay [7] was 0.093 µM; in assay [8], over 1 µM.

As for `NC(=O)[C@H](CC(=O)O)NC(=O)[C@H](CC(=O)O)NC(=O)CCc1cc(-c2ccc(-c3ccccc3)cc2)no1` [Compound 19, (S)-4-amino-3-((S)-2-(3-(3-(biphenyl-4-yl)isoxazol-5-yl)propanamido)-3-carboxypropanamido)-4-oxobutanoic acid], the Ki in assay [1] (read-out: Ki MMP-13h) was 0.024 µM; in assay [2] (read-out: Ki MMP-12h), 0.054 µM; in assay [3] (read-out: Ki MMP-10h), 0.527 µM; in assay [4] (read-out: Ki MMP-14h), over 1 µM; in assay [5] (read-out: Ki MMP-8h) it was over 1 µM; in assay [6] (read-out: Ki MMP-3h) it was 0.75 µM. The Ki in assay [7] (read-out: Ki MMP-2h) is 0.052 µM; in assay [8] (read-out: Ki MMP-9h), over 1 µM.

`NC(=O)CC[C@H](NC(=O)CCc1cc(-c2ccc(-c3ccccc3)cc2)no1)C(=O)N[C@@H](CCC(=O)O)C(N)=O` [Compound 20, (S)-5-amino-4-((S)-5-amino-2-(3-(3-(biphenyl-4-yl)isoxazol-5-yl)propanamido)-5-oxopentanamido)-5-oxopentanoic acid]: the Ki in assay [1] (read-out: Ki MMP-13h) was 0.234 µM; in assay [2] (read-out: Ki MMP-12h) it was 0.412 µM; in assay [3] (read-out: Ki MMP-10h) it was over 5 µM; in assay [4] (read-out: Ki MMP-14h), over 10 µM; in assay [5] (read-out: Ki MMP-8h), over 1 µM; in assay [6] (read-out: Ki MMP-3h), over 1 µM. Also, the Ki in assay [7] (read-out: Ki MMP-2h) was 0.834 µM; in assay [8] (read-out: Ki MMP-9h), over 1 µM.

For the compound `NC(=O)CC[C@H](NC(=O)[C@H](CCC(=O)O)NC(=O)CCc1cc(-c2ccc(-c3ccccc3)cc2)no1)C(N)=O` [Compound 21, (S)-4-(3-(3-(biphenyl-4-yl)isoxazol-5-yl)propanamido)-5-((S)-1,5-diamino-1,5-dioxopentan-2-ylamino)-5-oxopentanoic acid], the Ki in assay [1] (read-out: Ki MMP-13h) is 0.049 µM; in assay [2] (read-out: Ki MMP-12h) it was 0.0054 µM; in assay [3] (read-out: Ki MMP-10h) it was 0.256 µM; in assay [4] (read-out: Ki MMP-14h), over 1 µM; in assay [5] (read-out: Ki MMP-8h), 0.261 µM; in assay [6] (read-out: Ki MMP-3h), 0.105 µM. In addition, the Ki in assay [7] (read-out: Ki MMP-2h) is 0.0393 µM; in assay [8] (read-out: Ki MMP-9h), over 1 µM.

With `NC(=O)CC[C@H](NC(=O)[C@H](CCC(N)=O)NC(=O)CCc1cc(-c2ccc(-c3ccccc3)cc2)no1)C(N)=O` [Compound 22, (S)-2-(3-(3-(biphenyl-4-yl)isoxazol-5-yl)propanamido)-N^1-((S)-1,5-diamino-1,5-dioxopentan-2-yl)pentanediamide], the Ki in assay [1] (read-out: Ki MMP-13h) was 0.436 µM; in assay [2] (read-out: Ki MMP-12h), 0.83 µM; in assay [3] (read-out: Ki MMP-10h) it was over 10 µM; in assay [4] (read-out: Ki MMP-14h), over 10 µM; in assay [5] (read-out: Ki MMP-8h), over 1 µM; in assay [6] (read-out: Ki MMP-3h) it was over 10 µM. Also, the Ki in assay [7] (read-out: Ki MMP-2h) and in assay [8] (read-out: Ki MMP-9h) was over 1 µM throughout.

As to `C[C@H](NC(=O)[C@H](CCC(=O)O)NC(=O)CCc1cc(-c2ccc(-c3ccccc3)cc2)no1)C(N)=O` [Compound 23, (S)-5-((S)-1-amino-1-oxopropan-2-ylamino)-4-(3-(3-(biphenyl-4-yl)isoxazol-5-yl)propanamido)-5-oxopentanoic acid], the inhibitory constant (Ki) in assay [1] (read-out: Ki MMP-13h) was 0.08 µM; in assay [2] (read-out: Ki MMP-12h) it was 0.0112 µM; in assay [3] (read-out: Ki MMP-10h), 0.276 µM; in assay [4] (read-out: Ki MMP-14h), over 1 µM; in assay [5] (read-out: Ki MMP-8h) it was 0.351 µM; in assay [6] (read-out: Ki MMP-3h) it was 0.46 µM. In addition, the values for the Ki in assay [7] (read-out: Ki MMP-2h) and in assay [8] (read-out: Ki MMP-9h) were 0.078 µM and over 1 µM, respectively.

Take `NC(=O)[C@H](CCC(=O)O)NC(=O)[C@H](CCC(=O)O)NC(=O)CCc1ccc(Oc2ccccc2)cc1` [Compound 28, (S)-5-amino-4-((S)-4-carboxy-2-(3-(4-phenoxyphenyl)propanamido)butanamido)-5-oxopentanoic acid]: the Ki in assay [1] (read-out: Ki MMP-13h) was 0.309 µM; in assay [2] (read-out: Ki MMP-12h), 0.856 µM; in assay [3] (read-out: Ki MMP-10h), over 1 µM; in assay [4] (read-out: Ki MMP-14h), over 1 µM; in assay [5] (read-out: Ki MMP-8h), over 1 µM; in assay [6] (read-out: Ki MMP-3h) it was over 5 µM. The Ki in assay [7] (read-out: Ki MMP-2h) was over 1 µM; in assay [8] (read-out: Ki MMP-9h) it was over 10 µM.

In the case of `NC(=O)[C@H](CCC(=O)O)NC(=O)[C@H](CCC(=O)O)NC(=O)CCc1ccc(COc2ccccc2)cc1` [Compound 29, (S)-5-amino-4-((S)-4-carboxy-2-(3-(4-(phenoxymethyl)phenyl)propanamido)butanamido)-5-oxopentanoic acid], the inhibitory constant (Ki) in assay [1] (read-out: Ki MMP-13h) is 0.117 µM; in assay [2] (read-out: Ki MMP-12h), 0.469 µM; in assay [3] (read-out: Ki MMP-10h) it was over 1 µM; in assay [4] (read-out: Ki MMP-14h), over 5 µM; in assay [5] (read-out: Ki MMP-8h), over 1 µM; in assay [6] (read-out: Ki MMP-3h), over 10 µM. Moreover, the Ki in assay [7] (read-out: Ki MMP-2h) and in assay [8] (read-out: Ki MMP-9h) was over 1 µM each time.

As to `NC(=O)[C@H](CCC(=O)O)NC(=O)[C@H](CCC(=O)O)NC(=O)CCc1ccc(C#Cc2ccccc2)cc1` [Compound 30, (S)-5-amino-4-((S)-4-carboxy-2-(3-(4-(phenylethynyl)phenyl)propanamido)butanamido)-5-oxopentanoic acid], the Ki in assay [1] (read-out: Ki MMP-13h) is 0.598 µM; in assay [2] (read-out: Ki MMP-12h), 0.154 µM; in assay [3] (read-out: Ki MMP-10h) it was over 1 µM; in assay [4] (read-out: Ki MMP-14h) it was over 1 µM; in assay [5] (read-out: Ki MMP-8h) it was 0.818 µM; in assay [6] (read-out: Ki MMP-3h) it was over 1 µM. Besides, the Ki in assay [7] (read-out: Ki MMP-2h) is over 1 µM; in assay [8] (read-out: Ki MMP-9h), 0.235 µM.

For `NC(=O)[C@H](CCC(=O)O)NC(=O)[C@H](CCC(=O)O)NC(=O)CCc1ccc(I)cc1` [Compound 31, (S)-5-amino-4-((S)-4-carboxy-2-(3-(4-iodophenyl)propanamido)butanamido)-5-oxopentanoic acid], the Ki in assay [1] (read-out: Ki MMP-13h) was over 1 µM; in assay [2] (read-out: Ki MMP-12h), 0.155 µM; in assay [3] (read-out: Ki MMP-10h), over 1 µM; in assay [4] (read-out: Ki MMP-14h), over 1 µM; in assay [5] (read-out: Ki MMP-8h) it was 0.839 µM; in assay [6] (read-out: Ki MMP-3h), over 5 µM. For the same compound, the Ki in assay [7] (read-out: Ki MMP-2h) and in assay [8] (read-out: Ki MMP-9h) was over 1 µM in each case.

On to `NC(=O)[C@H](CCC(=O)O)NC(=O)[C@H](CCC(=O)O)NC(=O)CCc1ccc(-c2ncccn2)cc1` [Compound 32, (S)-5-amino-4-((S)-4-carboxy-2-(3-(4-(pyrimidin-2-yl)phenyl)propanamido)butanamido)-5-oxopentanoic acid], for which the Ki was 0.641 µM in assay [1] (read-out: Ki MMP-13h); 0.969 µM in assay [2] (read-out: Ki MMP-12h); over 5 µM in assay [3] (read-out: Ki MMP-10h); over 1 µM in assay [4] (read-out: Ki MMP-14h); over 1 µM in assay [5] (read-out: Ki MMP-8h); over 1 µM in assay [6] (read-out: Ki MMP-3h). The values for the Ki in assay [7] (read-out: Ki MMP-2h) and in assay [8] (read-out: Ki MMP-9h) were over 5 µM and over 1 µM, respectively.

For `Cn1ccc(-c2ccc(CCC(=O)N[C@@H](CCC(=O)O)C(=O)N[C@@H](CCC(=O)O)C(N)=O)cc2)n1` [Compound 33, (S)-5-amino-4-((S)-4-carboxy-2-(3-(4-(1-methyl-1H-pyrazol-3-yl)phenyl)propanamido)butanamido)-5-oxopentanoic acid], the Ki in assay [1] (read-out: Ki MMP-13h) is 0.518 µM; in assay [2] (read-out: Ki MMP-12h), 0.797 µM; in assay [3] (read-out: Ki MMP-10h), over 10 µM; in assay [4] (read-out: Ki MMP-14h), over 1 µM; in assay [5] (read-out: Ki MMP-8h), over 1 µM; in assay [6] (read-out: Ki MMP-3h), over 10 µM. Further, the Ki in assay [7] (read-out: Ki MMP-2h) and in assay [8] (read-out: Ki MMP-9h) was over 1 µM throughout.

`Cc1nc(-c2ccc(CCC(=O)N[C@@H](CCC(=O)O)C(=O)N[C@@H](CCC(=O)O)C(N)=O)cc2)no1` [Compound 34, (S)-5-amino-4-((S)-4-carboxy-2-(3-(4-(5-methyl-1,2,4-oxadiazol-3-yl)phenyl)propanamido)butanamido)-5-oxopentanoic acid]: the Ki is over 1 µM in assay [1] (read-out: Ki MMP-13h); 0.887 µM in assay [2] (read-out: Ki MMP-12h); over 1 µM in assay [3] (read-out: Ki MMP-10h); over 1 µM in assay [4] (read-out: Ki MMP-14h); over 1 µM in assay [5] (read-out: Ki MMP-8h); over 1 µM in assay [6] (read-out: Ki MMP-3h). The Ki in assay [7] (read-out: Ki MMP-2h) and in assay [8] (read-out: Ki MMP-9h) was over 5 µM throughout.

As for `NC(=O)[C@H](CCC(=O)O)NC(=O)[C@H](CCC(=O)O)NC(=O)CCc1ccc(-c2csnn2)cc1` [Compound 35, (S)-4-(3-(4-(1,2,3-thiadiazol-4-yl)phenyl)propanamido)-5-((S)-1-amino-4-carboxy-1-oxobutan-2-ylamino)-5-oxopentanoic acid], the Ki in assay [1] came out at 0.212 µM; in assay [2], 0.158 µM; in assay [3], 0.679 µM; in assay [4], 0.438 µM; in assay [5] it was 0.231 µM; in assay [6], 0.281 µM. For the same compound, the inhibitory constant (Ki) was 0.442 µM in assay [7] and 0.199 µM in assay [8].
